Test results from patent publication US20060121040A1, “Compositions and methods for treating neuroendocrine tumors” (Wisconsin Alumni Research Foundation, priority 2004, published 2006).
“Also recorded” adds a separate entry of the source. Where two headings read alike, the source gives them in different places.

Columns and labels:
[1] = test system: H727 cells; assay: Cytotoxicity assay (Cell Titer Glo), H727 cells; assay type: cell-based, human; settings: ZM336372 tested 0 to 200 μmol/L
Description: (§1) Cells (H727 and BON) were harvested by trypsinization and plated at a cell density of 3,000 cells per well of each microtiter plate. Cells were grown for 4 hours at 37° C. to allow cell attachment to occur before compound addition. Doxorubicin (control) and ZM336372 were dissolved in DMSO. […] Treatments were done in duplicate. Cells were incubated with the test compounds for 72 hours before reading the assay. Then processing and calculation were done according to manufacturer's directions for Cell Titer Glo Assay (Promega, Madison, Wis.).

[2] = test system: BON cells; assay: Cytotoxicity assay (Cell Titer Glo), BON cells; assay type: cell-based, human; settings: 72 hours, ZM336372 tested 0 to 200 μmol/L
Description: as §1

[3] = test system: chromogranin A (CgA); assay: NE marker chromogranin A in medullary thyroid cancer TT cells; assay type: cell-based, human; settings: SB216763 0-50 μM
[4] = test system: human achaete-scute homolog-1 (hASH1); assay: NE marker hASH1 in medullary thyroid cancer TT cells; assay type: cell-based; settings: SB216763 0-50 μM
[5] = test system: medullary thyroid cancer TT cells; assay: Cellular growth of medullary thyroid cancer cells; assay type: cell-based, human
[6] = test system: H727 cells; assay: Drug toxicity assay, propidium iodide exclusion, H727 cells; assay type: cell-based, human
Description: Briefly, cells were trypsinized and plated in a 6-well plate at 1 to 2×10^6 in triplicate and allowed to adhere overnight. […] As a control, DMSO was added. After incubation, the medium was removed and cells were trypsinized and added to removed medium. Cells were incubated on ice and 2.5 Ag/mL propidium iodide (Sigma) was added 5 minutes before flow cytometry (17). Data was acquired using a FACSCalibur bench top flow cytometer (Becton Dickinson, San Jose, Calif.) using CellQuest acquisition and analysis software.

[7] = test system: Raf-1/MEK/ERK system; assay: Western analysis for Raf-1 pathway activation in BON cells; assay type: cell-based, human; settings: increasing doses (20 and 100 μmol/L), 2 d
Description: (§2) H727 and BON cells were plated at 50% to 60% confluence in 100-mm cell culture dishes and incubated overnight. Cells were treated with ZM336372 (BioMol, Plymouth Meeting, Pa.) in different concentrations for up to 6 days. Of note, treatments were done in serum-containing medium. Furthermore, the DMSO concentration never exceeded 2% in all treatment groups. ZM336372 at 500 μmol/L concentrations were used only in the toxicity experiments. Stock ZM336372 was made at higher concentration to reduce DMSO toxicity.

[8] = test system: p18; assay: Western analysis of cell cycle inhibitor p18 in H727 cells; settings: 20 and 100 μmol/L, 2 days
Description: (§5) Cellular extracts were prepared and quantified by bicinchoninic acid protein assay kit (Pierce, Rockford, Ill.) as previously described (Sippel & Chen, Surgery 2002;132:1035-9). Denatured proteins (30-50 μg) from each sample underwent electrophoresis on a SDS polyacrylamide gel and transferred to a nitrocellulose membranes (Schleicher and Schuell, Keene, N.H.). Membranes were blocked for 1 hour in milk solution (1×PBS, 5% nonfat dry milk, 0.05% Tween 20) and incubated at 4° C. overnight with primary antibodies. The following primary antibody dilutions were used: phospho-ERK1/2 (1:1,000), phospho-MEK (1:1,000), phospho-Raf-1 (Ser338; 1:1,000), p21 and p18, (1:1,000) (Cell Signaling Technology, Beverly, Mass.), Chromogranin A (1:2,000; Zymed Laboratories, San Francisco, Calif.), MASH-1 (1:1000, BD Pharmingen, San Diego, Calif.), and G3PDH (1:10,000; Trevigen, Gaithersburg, Md.). After primary antibody incubation, membranes were washed 3×5 minutes in PBS-T wash buffer (1×PBS and 0.05% Tween 20). Then the membranes were incubated with either 1:2,000 dilution of goat anti-rabbit or goat anti-mouse secondary antibody (Cell Signaling Technology) depending on the source of the primary antibody for 1 hour at room temperature. […]

[9] = test system: BON cells; assay: Cell proliferation assay (MTT) in BON cells; assay type: cell-based, human; settings: 100 μmol/L vs DMSO, day 4 to day 10
Description: (§3) Cells were trypsinized and plated in triplicate to 24-well plates and allowed to adhere overnight. […] Media were changed every 2 days with new treatment. […] Absorbance was determined using spectrophotometer at a wavelength of 540 nm.

[10] = test system: BON cells; assay: Drug toxicity assay, propidium iodide exclusion, BON cells; assay type: cell-based, human; settings: 63 to 500 μmol/L, 2 days
Description: Briefly, cells were trypsinized and plated in a 6-well plate at 1 to 2×10^6 in triplicate and allowed to adhere overnight. Then the media was replaced with fresh media containing various concentrations (31.25, 62.5, 125, 250, and 500 μmol/L) of ZM336372 and incubated for up to 3 days. As a control, DMSO was added. After incubation, the medium was removed and cells were trypsinized and added to removed medium. Cells were incubated on ice and 2.5 Ag/mL propidium iodide (Sigma) was added 5 minutes before flow cytometry (17). Data was acquired using a FACSCalibur bench top flow cytometer (Becton Dickinson, San Jose, Calif.) using CellQuest acquisition and analysis software.

[11] = test system: hASH1; assay: Western analysis of hASH1 in H727 cells; assay type: cell-based, human
Description: as §2
(§4) Changes in chromogranin A levels are known to be concordant with alterations in other neuroendocrine hormones such as histamine and serotonin (Sippel & Chen, Surgery 2002;132:1035-9). Additionally, hASH1 is expressed in most neuroendocrine tumors and correlates with neuroendocrine hormone levels as previously described. Therefore, to determine if ZM336372 can reduce chromogranin A and hASH1, pulmonary H727 and gastrointestinal BON carcinoid cells were treated with ZM336372. […] Furthermore, to determine when chromogranin A depletion occurs, H727 cells were treated with ZM336372 at different time intervals.

[12] = molecular target: T1, GSK3B (Homo sapiens, UniProt P49841); assay: Phosphorylated GSK3B in NE tumor cells (BON and TT) treated with ZM336372 (FIG. 7); assay type: cell-based; settings: ZM336372 0-50 μM
T1 construct: treatment of NE tumor cells with ZM336372 (0-50 μM); endogenous in cells; host or cells: BON and TT cells
T1 sequence (P49841 whole entry): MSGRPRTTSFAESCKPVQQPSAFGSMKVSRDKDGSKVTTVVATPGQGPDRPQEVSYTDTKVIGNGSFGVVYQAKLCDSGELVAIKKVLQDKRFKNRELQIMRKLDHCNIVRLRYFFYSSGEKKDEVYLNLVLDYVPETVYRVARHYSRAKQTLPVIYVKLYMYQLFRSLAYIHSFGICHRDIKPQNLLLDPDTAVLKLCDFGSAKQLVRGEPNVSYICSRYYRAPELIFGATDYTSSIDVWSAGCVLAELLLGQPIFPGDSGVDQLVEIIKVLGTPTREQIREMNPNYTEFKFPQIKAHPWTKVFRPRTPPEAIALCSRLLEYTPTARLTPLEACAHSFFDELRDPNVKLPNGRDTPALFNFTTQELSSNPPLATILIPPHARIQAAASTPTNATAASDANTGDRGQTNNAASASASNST

[13] = test system: Raf-1/MEK/ERK system; assay: Western analysis for Raf-1 pathway activation in H727 cells; assay type: cell-based, human
Description: as §2

[14] = test system: chromogranin A; assay: Western analysis of chromogranin A in H727 cells; assay type: cell-based, human
Description: as §2, §4

[15] = test system: ERK1/2; assay: Phosphorylated ERK1/2 in NE tumor cells (BON and TT) treated with ZM336372 (FIG. 7); assay type: cell-based, human; settings: ZM336372 0-50 μM
[16] = test system: H727 cells; assay: Cell proliferation assay (MTT) in H727 cells; assay type: cell-based, human; settings: 100 μmol/L vs DMSO, up to 16 days, serum-containing medium
Description: as §3

[17] = test system: p21; assay: Western analysis of cell cycle inhibitor p21 in H727 cells; assay type: cell-based, human; settings: 20 and 100 μmol/L, 2 days
Description: as §5

[18] = test system: hASH1; assay: Western analysis of hASH1 in BON cells; assay type: cell-based, human; settings: 20 and 100 μmol/L, 2 d
Description: as §2, §4

[19] = test system: chromogranin A; assay: Western analysis of chromogranin A in BON cells; assay type: cell-based, human; settings: 20 and 100 μmol/L, 2 d
Description: as §2, §4

## COc1cccc2c1C(=O)c1c(O)c3c(c(O)c1C2=O)C[C@@](O)(C(=O)CO)C[C@@H]3O[C@H]1C[C@H](N)[C@H](O)[C@H](C)O1 [doxorubicin]
[1]; Homo sapiens, NCI-H727, 72 hours, read-out: IC50
  IC50: 1.1 µM
[2]; Homo sapiens, read-out: IC50
  IC50: 1.4 µM

## Cn1cc(C2=C(c3ccc(Cl)cc3Cl)C(=O)NC2=O)c2ccccc21 [SB216763]
[3]
  chromogranin A production: suppression; also recorded: reduction
[4]
  hASH1: suppression; also recorded: reduction
[5]; SB216763 0-50 μM
  TT cell growth: suppression

## Cc1ccc(NC(=O)c2cccc(N(C)C)c2)cc1NC(=O)c1ccc(O)cc1 [ZM336372]
[6]; 20-100 μmol/L
  cytolysis: < 20%
[6]; H727, 20 to 100 μmol/L vs DMSO, 2 d
  viability: significant viability was maintained
[7]
  ERK1/2 and MEK1/2 phosphorylation: strong activation; also recorded: dose-dependent increases
[8]
  p18 expression: induced; also recorded: significant induction
[9]
  cell proliferation: growth suppression; also recorded: inhibited
[1]; 72 hours
  IC50: did not produce enough cellular cytotoxicity to estimate an IC50
[10]
  cells remaining viable: ~70%
[2]
  IC50: did not produce enough cellular cytotoxicity to estimate an IC50
[11]; 100 μmol/L
  first recognized reduction in hASH1: 1 h
[11]; 20 and 100 μmol/L, 2 d
  hASH1 level: reduction; also recorded: dose-dependent decrease
[12]
  levels of phosphorylated GSK3B: increased levels
[13]; 100 μmol/L
  MEK1/2 phosphorylation at days 4 and 6: sustained; also recorded: greater than controls out to 6 d
[13]; 20 and 100 μmol/L, 2 days
  Raf-1 phosphorylation at Ser338: phosphorylated; also recorded: dose-dependent increases
[13]; 20 and 100 μmol/L, 2 days, vs DMSO
  MEK1/2 and ERK1/2 phosphorylation: activation; also recorded: dose-dependent increases
[14]; 100 μmol/L
  time of greatest comparative loss of chromogranin A: 48 h
[14]; 100 μmol/L vs DMSO
  lasting effect on chromogranin A (days 2, 4 and 6): maintained to 6 days; also recorded: persistent reduction
[14]; 100 μmol/L, 10 min, 1, 12, 24, 48 h
  earliest detection of reduction of chromogranin A: 1 h
[14]; 20 and 100 μmol/L, 2 d
  chromogranin A level: reduction; also recorded: dose-dependent decrease
[15]
  levels of phosphorylated ERK1/2: increased levels
[16]
  cell proliferation: growth suppressed; also recorded: inhibited
[5]; ZM336372, medullary thyroid cancer cells, data not shown
  growth of other neuroendocrine tumor cell lines: inhibited growth
[17]
  p21 expression: induced; also recorded: significant induction
[18]
  hASH1 level: reduction; also recorded: dose-dependent decrease
[19]
  chromogranin A level: reduction; also recorded: dose-dependent decrease
